Experimental data as given in US9783537B2, “3-(4-ethylnylphenyl) pyridopyrimidinone compounds and process for preparation thereof useful as potential anticancer agents” (Council of Scientific & Industrial Research, priority 2013, dated 2017).
Where two headings read alike, the source gives them in different places.

Legend:
CCRF-CEM = assay: SRB 48 h growth assay, Leukemia CCRF-CEM; type: cell-based, human
A549/ATCC = assay: SRB 48 h growth assay, Non-small Cell Lung A549/ATCC; type: cell-based, human
HOP-92 = assay: SRB 48 h growth assay, Non-small Cell Lung HOP-92; type: cell-based, human; details: HOP-92, Non-small Cell Lung
NCI-H226 = assay: SRB 48 h growth assay, Non-small Cell Lung NCI-H226; type: cell-based, human; details: for GI50: Homo sapiens
NCI-H23 = assay: SRB 48 h growth assay, Non-small Cell Lung NCI-H23; type: cell-based, human; details: for GI50: Homo sapiens
HCC-2998 = assay: SRB 48 h growth assay, Colon HCC-2998; type: cell-based, human; details: HCC-2998, Colon
HCT-116 = assay: SRB 48 h growth assay, Colon HCT-116; type: cell-based, human; details: HCT-116, Colon
SNB-75 = assay: SRB 48 h growth assay, CNS SNB-75; type: cell-based, human; details: SNB-75, CNS
U251 = assay: SRB 48 h growth assay, CNS U251; type: cell-based, human
MALME-3M = assay: SRB 48 h growth assay, Melanoma MALME-3M; type: cell-based, human
MDA-MB-435 = assay: SRB 48 h growth assay, Melanoma MDA-MB-435; type: cell-based, human; details: MDA-MB-435, Melanoma
SK-MEL-2 = assay: SRB 48 h growth assay, Melanoma SK-MEL-2; type: cell-based, human; details: SK-MEL-2, Melanoma
UACC-257 = assay: SRB 48 h growth assay, Melanoma UACC-257; type: cell-based, human; details: UACC-257, Melanoma
UACC-62 = assay: SRB 48 h growth assay, Melanoma UACC-62; type: cell-based, human; details: UACC-62, Melanoma
OVCAR-3 = assay: SRB 48 h growth assay, Ovarian OVCAR-3; type: cell-based, human; details: OVCAR-3, Ovarian
OVCAR-5 = assay: SRB 48 h growth assay, Ovarian OVCAR-5; type: cell-based, human; details: OVCAR-5, Ovarian
NCI/ADR-RES = assay: SRB 48 h growth assay, Ovarian NCI/ADR-RES; type: cell-based, human
A498 = assay: SRB 48 h growth assay, Renal A498; type: cell-based, human
ACHN = assay: SRB 48 h growth assay, Renal ACHN; type: cell-based, human
CAKI-1 = assay: SRB 48 h growth assay, Renal CAKI-1; type: cell-based, human; details: CAKI-1, Renal
PC-3 = assay: SRB 48 h growth assay, Prostate PC-3; type: cell-based, human; details: PC-3, Prostate
DU-145 = assay: SRB 48 h growth assay, Prostate DU-145; type: cell-based, human; details: DU-145, Prostate
[1] = test system: six leukemia cancer cell lines (CCRF-CEM, HL-60, K-562, MOLT-4, SR and RPMI-8226); assay: in vitro anticancer activity, leukemia panel; type: cell-based; details: Homo sapiens, exposure at least 48 h, read-out: GI50, range over panel
[2] = test system: six CNS cancer cell line (SF-268, SF-295, SF-539, SNB-19, SNB-75 and U251); assay: in vitro anticancer activity, CNS panel; type: cell-based; details: Homo sapiens; six CNS cancer cell lines, exposure at least 48 h; read-out: GI50, range over panel
[3] = test system: two prostate cancer cell line (PC-3, DU-145); assay: in vitro anticancer activity, prostate panel; type: cell-based; details: Homo sapiens; two prostate cancer cell lines, exposure at least 48 h; read-out: GI50, range over panel
[4] = test system: six breast cancer cell line (MCF-7, MDA-MB-231/ATCC, HS 578T, TD-47D, MDA-MB-468 and BT-549); assay: in vitro anticancer activity, breast panel; type: cell-based; details: Homo sapiens; six breast cancer cell lines, exposure at least 48 h; read-out: GI50, range over panel
[5] = Homo sapiens, read-out: Growth Inhibition GI50
[6] = Homo sapiens, read-out: Log10 GI50 (converted)
[7] = Homo sapiens, read-out: Log10 LC50 (converted)
[8] = read-out: Growth Inhibition GI50
[9] = read-out: Log10 GI50 (converted)

`C#Cc1ccc(-n2c(/C=C/c3cc(OC)c(OC)c(OC)c3)nc3ncccc3c2=O)cc1` [4q, (E)-3-(4-Ethynylphenyl)-2-(3,4,5-trimethoxystyryl)pyrido[2,3-d]pyrimidin-4(3H)-one] was tested, and the “Log10 TGI50” value (CCRF-CEM) was greater than −4.00, the CC50 (CCRF-CEM; Homo sapiens, CCKF-CEM, read-out: Log10 LC50 (converted)) was greater than 100 µM and the GI50 (CCRF-CEM; [5]) was 4.9 µM. The GI50 (CCRF-CEM; [6]) was 4.9 µM, the “Log10 TGI50” value (A549/ATCC) was greater than −4.00 and the GI50 (A549/ATCC; [5]) was 5.65 µM. For the same molecule, the GI50 (A549/ATCC; [6]) was 5.62 µM, the CC50 (A549/ATCC; [7]) was greater than 100 µM and the “Log10 TGI50” value (HOP-92) was −5.11. For the same molecule, the GI50 (HOP-92; [5]) was 2.31 µM, the GI50 (HOP-92; [6]) was 2.29 µM and the CC50 (HOP-92; [7]) was greater than 100 µM. The “Log10 TGI50” value (NCI-H226) was greater than −4.00, the GI50 (NCI-H226; [8]) was 12.9 µM and the GI50 (NCI-H226; [9]) was 12.9 µM. For the same molecule, the “Log10 TGI50” value (NCI-H23) was greater than −4.00, the GI50 (NCI-H23; [8]) was 17.3 µM and the GI50 (NCI-H23; [9]) was 17.4 µM. For the same molecule, the “Log10 TGI50” value (HCC-2998) was greater than −4.00, the GI50 (HCC-2998; [5]) was 27.5 µM and the GI50 (HCC-2998; [6]) was 27.5 µM. The CC50 (HCC-2998; [7]) was greater than 100 µM, the “Log10 TGI50” value (HCT-116) was greater than −4.00 and the GI50 (HCT-116; [5]) was 5.17 µM. For the same molecule, the GI50 (HCT-116; [6]) was 5.13 µM, the CC50 (HCT-116; [7]) was greater than 100 µM and the GI50 (SNB-75; [5]) was 3.88 µM. For the same molecule, the GI50 (SNB-75; [6]) was 3.89 µM, the CC50 (SNB-75; [7]) was greater than 100 µM and the “Log10 TGI50” value (SNB-75) was greater than −4.00. For the same molecule, the “Log10 TGI50” value (U251) was greater than −4.00, the GI50 (U251; Homo sapiens, U-251, read-out: Growth Inhibition GI50) was 9.93 µM and the GI50 (U251; Homo sapiens, U-251, read-out: Log10 GI50 (converted)) was 10 µM. The CC50 (U251; Homo sapiens, U-251, read-out: Log10 LC50 (converted)) was greater than 100 µM, the “Log10 TGI50” value (MALME-3M) was −4.15 and the GI50 (MALME-3M; [5]) was 9.74 µM. For the same molecule, the GI50 (MALME-3M; [6]) was 9.77 µM, the CC50 (MALME-3M; [7]) was greater than 100 µM and the GI50 (MDA-MB-435; [5]) was 1.98 µM. The GI50 (MDA-MB-435; [6]) was 2 µM, the CC50 (MDA-MB-435; [7]) was 97.7 µM and the “Log10 TGI50” value (MDA-MB-435) was −5.27. For the same molecule, the GI50 (SK-MEL-2; [5]) was 4.54 µM, the GI50 (SK-MEL-2; [6]) was 4.57 µM and the CC50 (SK-MEL-2; [7]) was greater than 100 µM. The “Log10 TGI50” value (SK-MEL-2) was −4.66, the GI50 (UACC-257; [5]) was 9.74 µM and the GI50 (UACC-257; [6]) was 9.77 µM. For the same molecule, the CC50 (UACC-257; [7]) was greater than 100 µM, the “Log10 TGI50” value (UACC-257) was greater than −4.00 and the GI50 (UACC-62; [5]) was 6.9 µM. The GI50 (UACC-62; [6]) was 6.92 µM, the CC50 (UACC-62; [7]) was greater than 100 µM and the “Log10 TGI50” value (UACC-62) was greater than −4.00. The GI50 (OVCAR-3; [5]) was 2.33 µM, the GI50 (OVCAR-3; [6]) was 2.34 µM and the CC50 (OVCAR-3; [7]) was greater than 100 µM. The “Log10 TGI50” value (OVCAR-3) was −5.19, the GI50 (OVCAR-5; [5]) was greater than 100 µM and the GI50 (OVCAR-5; [6]) was greater than 100 µM. For the same molecule, the CC50 (OVCAR-5; [7]) was greater than 100 µM, the “Log10 TGI50” value (OVCAR-5) was greater than −4.00 and the “Log10 TGI50” value (NCI/ADR-RES) was −4.46. The GI50 (NCI/ADR-RES; [5]) was 3.61 µM, the GI50 (NCI/ADR-RES; [6]) was 3.63 µM and the CC50 (NCI/ADR-RES; [7]) was greater than 100 µM. For the same molecule, the “Log10 TGI50” value (A498) was −5.01, the GI50 (A498; [5]) was 2.63 µM and the GI50 (A498; [6]) was 2.63 µM. The CC50 (A498; [7]) was greater than 100 µM, the “Log10 TGI50” value (ACHN) was greater than −4.00 and the GI50 (ACHN; [5]) was 6.63 µM. For the same molecule, the GI50 (ACHN; [6]) was 6.61 µM, the CC50 (ACHN; [7]) was greater than 100 µM and the “Log10 TGI50” value (CAKI-1) was greater than −4.00. It also gave a GI50 (CAKI-1; [5]) of 6.07 µM, a GI50 (CAKI-1; [6]) of 6.03 µM and a CC50 (CAKI-1; [7]) greater than 100 µM. It also gave a GI50 (PC-3; [5]) of 3.96 µM, a GI50 (PC-3; [6]) of 3.98 µM and a CC50 (PC-3; [7]) greater than 100 µM. The “Log10 TGI50” value (PC-3) was greater than −4.00, the “Log10 TGI50” value (DU-145) was greater than −4.00 and the GI50 (DU-145; [5]) was 5.36 µM. It also gave a GI50 (DU-145; [6]) of 5.37 µM, a CC50 (DU-145; [7]) greater than 100 µM and a GI50 [1] of 1.39 to 3.01 µM. For the same molecule, the GI50 [2] was 1.67 to 2.27 µM, the GI50 [3] was 1.96 to 3.76 µM and the GI50 [4] was 1.51 to 3.46 µM.
